Read-outs that look alike come from different tables or passages of the source.
Tests used:
Format in all cases: cell-based, human
[1] = tested on: bioprinted full thickness skin tissue; assay: Skin irritation test, viability by alamar blue assay, 15 minute exposure, 24 well plate format (Example 5)
Source text: (§1) Bio-ink was generated by a cellular mixture of 100% primary adult human dermal fibroblasts (HDFa) in 8% gelatin (Novogel® 2.0) in a concentration of 50 million cells per milliliter. The cell: gelatin ratio was altered to further reduce the cellular density of the dermal sheet to better mimic dermal tissue in native skin. Three-dimensional bio-ink constructs were printed by continuous deposition using the Novogen Bioprinter® platform in a 2 mm×2 mm×0.5 mm base sheet to create a dermal structure resembling a sheet. A smaller syringe needle was used to achieve greater resolution at the reduced size. Instead of printing one 0.5 mm sheet with a 500 μm diameter syringe needle, two layers of 0.25 mm sheets printed with a 250 μm diameter needle. One tissue construct was printed per transwell-in a 24 well plate. The transwell printing surface contained a polytetrafluoroethylene (PTFE)-membrane coated with equimolar mixture of types I and III collagen (bovine) with pores 3 μm in-size. Epidermal cell paste containing a mixture of 100% primary neonatal human epidermal keratinocytes (HEKn) was then printed on top of the dermal bio-ink. Cell paste was measured post print at 96.0% viable by trypan exclusion assay. Cell number in deposited epidermal layer was estimated at 11,000 cells by cell counting on a Cell-O-Meter. Immediately following the print, constructs were placed in 4° C. for 10 minutes. This is a key step to harden the Novogel®, which helps to maintain the printed shape and improve construct to construct uniformity. Cold media was then added to the outer well of the transwell in a volume of 1 ml. The media used for subsequent growth and maintenance of the skin tissue was a 50:50 ratio of HDFa:HEKn media. The initial volume added was sufficient to submerge the structure. […] IL-1α production (R&D Systems) was analyzed in a colorimetric assays per manufacturer's protocol. Media was analyzed for lactate dehydrogenase as a marker for cytotoxicity. IL-1α production was assessed as a complementary endpoint to classic cytotoxicity testing to improve predictability of irritants. […]

[2] = tested on: bioprinted full thickness skin tissue; assay: Skin irritation test, IL-1α production, 15 minute exposure, 24 well plate format (Example 5)
Source text: as §1

[3] = tested on: bioprinted full thickness skin tissue; assay: Skin irritation test, LDH activity, 15 minute exposure, 24 well plate format (Example 5)
Source text: as §1, with “Epidermal cell paste containing a mixture of 100% primary neonatal human epidermal keratinocytes (HEKn) was then printed on top of the dermal bio-ink.” left out, “assay.” for “assay. Cell number in deposited epidermal layer was estimated at 11,000 cells by cell counting on a Cell-O-Meter. Immediately following the print, constructs were placed in 4° C. for 10 minutes. This is a key step to harden the Novogel®, which helps to maintain the printed shape and improve construct to construct uniformity. Cold media was then added to the outer well of the transwell in a volume of 1 ml. The media used for subsequent growth and maintenance of the skin tissue was a 50:50 ratio of HDFa:HEKn media. The initial volume added was sufficient to submerge the structure.”

[4] = tested on: bioprinted full thickness skin tissue; assay: Skin irritation test, macroscopic and histological analysis (H&E, CK5/IVL, CK10, collagen 3, PCNA, TUNEL) (Example 4); details: 1% for 1 hour
Source text: (§2) Bio-ink was generated by a cellular mixture of 100% primary adult human dermal fibroblasts (HDFa) in 8% gelatin (Novogel® 2.0) at a concentration of 100 million cells per milliliter. The cell: gelatin ratio was altered to reduce the cellular density of the dermal sheet to better mimic dermal tissue in native skin. Three-dimensional bio-ink constructs were printed by continuous deposition using the Novogen Bioprinter® platform in a 4 mm×4 mm×0.5 mm base to create a dermal structure resembling a sheet. One tissue construct was printed per transwell in a […]. The transwell printing surface contained a polytetrafluoroethylene (PTFE) membrane coated with equimolar mixture of types I and III collagen (bovine) with pores 3 μm in size. Epidermal cell paste containing a mixture of 100% primary neonatal human epidermal keratinocytes (HEKn) was then printed on top of the dermal bio-ink. Cell paste was measured post print at 87.1% viable by trypan exclusion assay. Cell numbers in the deposited epidermal layer was estimated at 60,000 cells by cell counting on a Cell-O-Meter. Immediately following the print, constructs were placed at 4° C. for 10 minutes. Cold media was then added to the outer well of the transwell in a volume of 3 ml. The media used for subsequent growth and maintenance of the skin tissue was a 50:50 ratio of HDFa:HEKn media. The initial volume added was sufficient to submerge the structure. All subsequent media changes used warmed media (37° C.) added to the outer well of the transwell and not to the inner basket. Media was changed 48 hours later and reduced to a volume of 1.5 ml per well to bring the structure to an air-liquid interface (ALI). Media and subsequently changed 48 hours after that (day 4) at a volume of 1.5 ml. On day 5, media was changed and further reduced to 1 ml per well and subsequently changed daily. On day 10, skin tissues were subject to a skin irritation test method using 1% Triton X 100. 1% Triton X-100™ is a known irritant and reference chemical currently used in other 3D skin models. Methods were based on OECD guidelines 439 and 431 for applying human skin models to in vitro skin irritation or corrosion, respectively. On day 10, conditioned media was saved (designated time=0) and 1 ml of fresh media was added to the outer well of the transwell. The printed skin tissue was then treated with 20 μl of PBS as a negative control or with 20 μl of 1% Triton X-100™ as a positive control and known irritant. Test substances were pipetted manually to the apical surface of the tissue. Triton X-100™ was diluted to a 1% aqueous solution in deionized water and sterile filtered through a 20 micron filter before use. Samples were incubated for 30 minutes at 37° C. followed by 30 minutes at room temperature for a total of 60 minutes. Media was saved (designated time=1 hour). Samples were then washed extensively by PBS rinsing. Transwells were then placed in a new 6-well plate with fresh media (1 ml) added to the outer well then placed back into 37° C. overnight. The media was then changed at 24 hours and at 48 hours post treatment. Total media collected included time points=−48, 0, 1, 24, and 48 hours. IL-1α production (R&D Systems) was analyzed in a colorimetric assays per manufacturer's protocol. Media was analyzed for lactate dehydrogenase as a marker for cytotoxicity. IL-1α production was assessed as a complementary endpoint to classic cytotoxicity testing to improve predictability of irritants. Keratinocytes normally produce and release inflammatory cytokine IL-1α in response to chemical or physical stress. At 48 hours post treatment (day 12), tissues were either lysed for RNA extraction and subsequent qPCR analysis, or tested for viability by alamar blue assay then rinsed in PBS and fixed with 2% PFA for histological analysis. Alamar blue (Life Technologies) was added per manufacturer's instructions to media and incubated with tissue constructs (1 ml) at 37° C. for 3 hours. […]

[5] = tested on: bioprinted full thickness skin tissue; assay: Skin irritation test, qPCR gene expression analysis (Example 4); details: 1% for 1 hour
Source text: as §2, with “Test substances were pipetted manually to the apical surface of the tissue. Triton X-100™ was diluted to a 1% aqueous solution in deionized water and sterile filtered through a 20 micron filter before use. Samples were incubated for 30 minutes at 37° C. followed by 30 minutes at room temperature for a total of 60 minutes. Media was saved (designated time=1 hour). Samples were then washed extensively by PBS rinsing. Transwells were then placed in a new 6-well plate with fresh media (1 ml) added to the outer well then placed back into 37° C. overnight. The media was then changed at 24 hours and at 48 hours post treatment. Total media collected included time points=−48, 0, 1, 24, and 48 hours.” left out, “irritants.” for “irritants. Keratinocytes normally produce and release inflammatory cytokine IL-1α in response to chemical or physical stress. At 48 hours post treatment (day 12), tissues were either lysed for RNA extraction and subsequent qPCR analysis, or tested for viability by alamar blue assay then rinsed in PBS and fixed with 2% PFA for histological analysis. Alamar blue (Life Technologies) was added per manufacturer's instructions to media and incubated with tissue constructs (1 ml) at 37° C. for 3 hours.”

[6] = tested on: bioprinted full thickness skin tissue; assay: Skin irritation test, IL-1α production in media, colorimetric assay, 1 hour exposure (Example 4); details: 1% for 1 hour
Source text: (§3) Bio-ink was generated by a cellular mixture of 100% primary adult human dermal fibroblasts (HDFa) in 8% gelatin (Novogel® 2.0) at a concentration of 100 million cells per milliliter. The cell: gelatin ratio was altered to reduce the cellular density of the dermal sheet to better mimic dermal tissue in native skin. Three-dimensional bio-ink constructs were printed by continuous deposition using the Novogen Bioprinter® platform in a 4 mm×4 mm×0.5 mm base to create a dermal structure resembling a sheet. One tissue construct was printed per transwell in a […]. The transwell printing surface contained a polytetrafluoroethylene (PTFE) membrane coated with equimolar mixture of types I and III collagen (bovine) with pores 3 μm in size. Epidermal cell paste containing a mixture of 100% primary neonatal human epidermal keratinocytes (HEKn) was then printed on top of the dermal bio-ink. Cell paste was measured post print at 87.1% viable by trypan exclusion assay. Cell numbers in the deposited epidermal layer was estimated at 60,000 cells by cell counting on a Cell-O-Meter. Immediately following the print, constructs were placed at 4° C. for 10 minutes. Cold media was then added to the outer well of the transwell in a volume of 3 ml. The media used for subsequent growth and maintenance of the skin tissue was a 50:50 ratio of HDFa:HEKn media. The initial volume added was sufficient to submerge the structure. All subsequent media changes used warmed media (37° C.) added to the outer well of the transwell and not to the inner basket. Media was changed 48 hours later and reduced to a volume of 1.5 ml per well to bring the structure to an air-liquid interface (ALI). Media and subsequently changed 48 hours after that (day 4) at a volume of 1.5 ml. […] IL-1α production (R&D Systems) was analyzed in a colorimetric assays per manufacturer's protocol. Media was analyzed for lactate dehydrogenase as a marker for cytotoxicity. IL-1α production was assessed as a complementary endpoint to classic cytotoxicity testing to improve predictability of irritants. […]

[7] = tested on: bioprinted full thickness skin tissue; assay: Skin irritation test, viability by alamar blue assay, 1 hour exposure (Example 4); details: 1% for 1 hour; 48 hours post treatment (day 12)
Source text: as §3, with “Cell-O-Meter.” for “Cell-O-Meter. Immediately following the print, constructs were placed at 4° C. for 10 minutes. Cold media was then added to the outer well of the transwell in a volume of 3 ml. The media used for subsequent growth and maintenance of the skin tissue was a 50:50 ratio of HDFa:HEKn media. The initial volume added was sufficient to submerge the structure. All subsequent media changes used warmed media (37° C.) added to the outer well of the transwell and not to the inner basket. Media was changed 48 hours later and reduced to a volume of 1.5 ml per well to bring the structure to an air-liquid interface (ALI). Media and subsequently changed 48 hours after that (day 4) at a volume of 1.5 ml.”

[8] = tested on: bioprinted full thickness skin tissue; assay: Skin irritation test, lactate dehydrogenase (LDH) activity in media, 1 hour exposure (Example 4); details: 1% Triton X 100 for 1 hour, apical; at 1 hour, 24 hours and 48 hours post treatment
Source text: as §3, with “Cell-O-Meter.” for “Cell-O-Meter. Immediately following the print, constructs were placed at 4° C. for 10 minutes. Cold media was then added to the outer well of the transwell in a volume of 3 ml. The media used for subsequent growth and maintenance of the skin tissue was a 50:50 ratio of HDFa:HEKn media. The initial volume added was sufficient to submerge the structure. All subsequent media changes used warmed media (37° C.) added to the outer well of the transwell and not to the inner basket. Media was changed 48 hours later and reduced to a volume of 1.5 ml per well to bring the structure to an air-liquid interface (ALI). Media and subsequently changed 48 hours after that (day 4) at a volume of 1.5 ml.”

CCCCCCCCCCCCOS(=O)(=O)[O-].[Na+] [SDS]
irritant strength under these testing conditions [1]: much stronger irritant
viable compared to the PBS control (alamar blue) [1]: 2.45%
IL-1a production [2]: induced
IL-1a production, response compared between the two irritants [2]: much stronger response
LDH activity higher than PBS [3]: about 1.7 fold

Triton X-100
irritancy to bioprinted skin as suggested by histology [4]: irritant
CK5 positive basal keratinocyte layer ([4]; 48 hours post treatment): fragmented
Collagen 3 staining compared to the PBS control ([4]; 48 hours post treatment): reduction in dermal fibroblast function
apoptosis by TUNEL staining in the dermal layer ([4]; 48 hours post treatment): increase in apoptosis
histological analysis by H&E ([4]; 48 hours post treatment): separation of the epidermal and dermal layers
proliferation by PCNA staining ([4]; 48 hours post treatment, dermal fibroblasts and basal layer): reduction in proliferation
CK1 and CK10 gene expression ([5]; 48 hours post exposure): reduced
collagen production of types 1, 3, and 4 collagen (gene expression) ([5]; 48 hours post exposure): reduced
expression of both epidermal and dermal markers ([5]; 48 hours post exposure): dramatically reduces
IL1a gene expression increase in comparison to the PBS control ([5]; 48 hours post treatment): about 3 fold
IL-1α levels ([6]; 24 hours post treatment): remained high
IL-1α levels ([6]; 48 hours post treatment): returned to baseline
IL-1α activity in comparison to PBS control ([6]; greatest difference observed 1 hour post treatment): increased
viable compared to the PBS control (alamar blue) ([1]; 15 minute exposure, 5% SDS or 1% Triton X, 42 hours post treatment (day 15)): 68.75%
IL-1a production ([2]; 15 minute exposure, 5% SDS or 1% Triton X): induced
LDH activity higher than PBS ([3]; 15 minute exposure, 5% SDS or 1% Triton X, 42 hours post exposure): about 1.4 fold
reduction in viability as compared to the PBS control [7]: 80%
induction in LDH activity compared to PBS control [8]: roughly 2 fold

From US20160122723A1, “ENGINEERED THREE-DIMENSIONAL SKIN TISSUES, ARRAYS THEREOF, AND METHODS OF MAKING THE SAME” (ORGANOVO, INC., priority 2014, published 2016)
